According to US20180353501A1 (Arvinas, Inc., priority 2017, published 2018):
“And” between values parts separate entries of the source, which are not always exact repeats. Equal entries are not always repeated. Where two headings read alike, the source gives them in different places.

Target: T1, p38δ:PROTAC:VHL ternary complex (Homo sapiens, UniProt O15264+P40337)
T1 construct: encoding a region spanning amino acids 1-365 was PCR-amplified; His6 (N); made in house; host or cells: E. coli (BL21-CodonPlus(DE3)-RIPL for p38δ; BL21(DE3) for GST-VBC)
Assay: SPR ternary complex affinity and kinetics
Format: binding
Settings: for Kd: equimolar p38δ:PROTAC injected onto immobilized GST-VBC
Protocol: FIGS. 16A, 16B, and 16C. SPR curves assessing binary and ternary interactions. […] (C) SPR kinetic evaluation of p38δ:compound 46:VHL and p38δ:compound 50:VHL ternary complex interactions. Equimolar p38δ:PROTAC mixtures were injected onto immobilized GST-VBC and allowed to dissociate overtime. […] See Table 12 for a summary of the binary and ternary affinity and kinetic measurements.
Next, with the same setup, equimolar p38δ:PROTAC dilutions were successively injected onto immobilized VHL for 60 seconds, prior to monitoring complex dissociation for the remaining 300 seconds. This SPR strategy enabled us to determine effective ternary affinities for a given p38δ:PROTAC:VHL complex and compare the relative affinity change that occurs between VHL:PROTAC when p38δ is present in the mixture. […] This “enhanced” composite affinity is likely due to the additional PPIs between VHL and p38δ when in the presence of exemplary compound 46.
SPR experiments were conducted on a Biacore 3000 instrument (GE Healthcare) at room temperature. GST antibody was immobilized through direct amination onto a carboxymethylated dextran surface (CM5) and GST-VBC was captured on the CM5 surface. This prepared surface was equilibrated over three hours in running buffer (10 mM HEPES buffer pH 7.4, 150 mM NaCl, 0.4 mg mL^−1 BSA, 0.005% P20, 2% DMSO). All compounds were prepared in 100% DMSO stock plates with a top concentration of 500 μM in a 3× serial dilution. Exemplary compounds were transferred from the stock plate to the assay plate and diluted into running buffer without DMSO. Equimolar concentration of target protein was added to corresponding compound wells. All exemplary compounds were run as a twelve point-concentration series with a final assay top concentration of 50 μM to measure p38δ:PROTAC and VHL:PROTAC binding and top concentration of 5 μM to measure p38δ:PROTAC:VHL binding. All exemplary compounds were injected for 60 seconds and allowed to dissociate for 300 seconds. Data analysis was performed in Scrubber 2 (BioLogic Software). Blanks from reference flow cell containing immobilized GST-VBC were subtracted to correct for noise and data was solvent-corrected against a standard DMSO curve.

[1] = SPR, immobilized GST-VBC, listed as Ex. 50

T1 sequence (O15264 whole entry, the tested form may be a part): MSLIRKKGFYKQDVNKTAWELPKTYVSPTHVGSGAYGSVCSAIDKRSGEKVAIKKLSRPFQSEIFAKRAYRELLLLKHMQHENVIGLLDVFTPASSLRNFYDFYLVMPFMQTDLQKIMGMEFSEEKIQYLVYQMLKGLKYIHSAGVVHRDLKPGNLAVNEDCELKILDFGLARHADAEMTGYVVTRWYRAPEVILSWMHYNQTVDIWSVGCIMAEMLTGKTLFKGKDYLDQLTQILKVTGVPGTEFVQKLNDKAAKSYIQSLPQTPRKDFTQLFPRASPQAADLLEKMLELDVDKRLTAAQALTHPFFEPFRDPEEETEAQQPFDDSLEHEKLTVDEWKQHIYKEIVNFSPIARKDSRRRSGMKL
T1 sequence (P40337 whole entry, the tested form may be a part): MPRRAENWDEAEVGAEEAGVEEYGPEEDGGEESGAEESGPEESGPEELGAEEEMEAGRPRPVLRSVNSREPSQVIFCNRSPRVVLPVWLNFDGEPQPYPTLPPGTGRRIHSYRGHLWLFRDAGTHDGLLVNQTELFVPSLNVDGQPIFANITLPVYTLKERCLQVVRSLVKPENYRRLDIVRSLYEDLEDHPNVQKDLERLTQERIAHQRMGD
T1 sequence (Q15370 whole entry partner, the tested form may be a part): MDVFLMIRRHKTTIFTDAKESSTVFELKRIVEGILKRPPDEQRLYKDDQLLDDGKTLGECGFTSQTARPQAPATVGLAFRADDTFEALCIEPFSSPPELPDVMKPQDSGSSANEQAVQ
T1 sequence (Q15369 whole entry partner, the tested form may be a part): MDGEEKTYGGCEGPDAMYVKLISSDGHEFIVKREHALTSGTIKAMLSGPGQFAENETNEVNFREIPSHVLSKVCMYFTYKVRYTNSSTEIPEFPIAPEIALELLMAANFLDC

Question: Which results are given for COc1cc2c(Oc3ccc(NC(=O)C4(C(=O)Nc5ccc(F)cc5)CC4)cc3F)ccnc2cc1OCCOCCOCCOc1cc(-c2scnc2C)ccc1CNC(=O)[C@@H]1C[C@@H](O)CN1C(=O)[C@H](C(C)C)N1Cc2ccccc2C1=O [compound 46]?
Answer: leftward shift of ternary affinity from the VHL:PROTAC binary affinity (SPR): ~8 fold; koff (SPR, immobilized GST-VBC): 0.0175 s⁻¹; kon (SPR, immobilized GST-VBC): 39600 M⁻¹ s⁻¹; residence time (SPR, immobilized GST-VBC): 5.5 min; p38δ:PROTAC:VHL kon (SPR, immobilized GST-VBC, listed as Ex. 46): 39621 M⁻¹ s⁻¹; Kd (read-out: p38δ:PROTAC:VHL Kd): 0.436 µM

Question: What does the source list for COc1cc2c(Oc3ccc(NC(=O)C4(C(=O)Nc5ccc(F)cc5)CC4)cc3F)ccnc2cc1OCCCCOCCCCOCC(=O)N[C@H](C(=O)N1C[C@H](O)C[C@H]1C(=O)NCc1ccc(-c2scnc2C)cc1)C(C)(C)C [compound 50, N-(3-fluoro-4-((7-(4-(4-(2-(((S)-1-((2S,4R)-4-hydroxy-2-((4-(4-methylthiazol-5-yl)benzyl)carbamoyl)pyrrolidin-1-yl)-3,3-dimethyl-1-oxobutan-2-yl)amino)-2-oxoethoxy)butoxy)buto-xy)-6-methoxyquinolin-4-yl)oxy)phenyl)-N-(4-fluorophenyl)cyclopropane-1,1-dicarboxa-mide]?
Answer: off-rate quicker than the p38δ:compound 46:VHL complex (SPR): ~5 fold; residence time shorter than the p38δ:compound 46:VHL complex (SPR): ~4 fold; ternary affinity weaker than the exemplary compound 46-induced complex (SPR): ~3 fold; kon (SPR, immobilized GST-VBC): 70100 M⁻¹ s⁻¹; residence time (SPR, immobilized GST-VBC): 1.33 min; p38δ:PROTAC:VHL koff [1]: 0.072 s⁻¹; p38δ:PROTAC:VHL kon [1]: 70119 M⁻¹ s⁻¹; Kd (read-out: p38δ:PROTAC:VHL affinity): 1.2 µM and > 1 µM
